Where two headings read alike, the source gives them in different places.
Test system: weeds
Assay: Glasshouse weed control, HST inhibitors alone and with A22, pre-emergence
Type: in vivo
Details: 336 h, 14 DAT; for pest or weed control at 15.625 g/ha: HST inhibitor rate 15.625 g/ha; for pest or weed control at 62.5 g/ha: HST inhibitor rate 62.5 g/ha; for pest or weed control at 250 g/ha: HST inhibitor rate 250 g/ha
In short: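 Weeds grown in glasshouse trays (24-27 C day, 18-21 C night, ~15 h photoperiod) and track-sprayed in 0.2% X77 at […], pre-emergence or post-emergence at about 7-12 d. HPPD inhibitor A22 applied at 2 g/ha alone or mixed with HST herbicides. Damage scored 0–100% at 14 DAT; synergy calculated by Colby formula.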

[1] = BRAPL, read-out: BRAPL Obs, % control score
[2] = PANMI, read-out: PANMI Obs, % control score
[3] = SIDSP, read-out: SIDSP Obs, % control score
[4] = Digitaria sanguinalis, DIGSA, read-out: DIGSA Obs, % control score
[5] = Echinochloa crus-galli, ECHCG, read-out: ECHCG Obs, % control score
[6] = Setaria faberi, SETFA, read-out: SETFA Obs, % control score

## O=c1c(-c2c(F)ccc(Br)c2Cl)c(O)c2nccnc2n1CC(F)F [Compound 2.8]
[1]
  pest or weed control at 15.625 g/ha: 0%
  pest or weed control at 62.5 g/ha: 1%
  pest or weed control at 250 g/ha: 15%
[2]
  pest or weed control at 15.625 g/ha: 0%
  pest or weed control at 62.5 g/ha: 0%
  pest or weed control at 250 g/ha: 60%
[3]
  pest or weed control at 15.625 g/ha: 0%
  pest or weed control at 62.5 g/ha: 0%
  pest or weed control at 250 g/ha: 2%
[4]
  pest or weed control at 15.625 g/ha: 0%
  pest or weed control at 62.5 g/ha: 0%
  pest or weed control at 250 g/ha: 30%
[5]
  pest or weed control at 15.625 g/ha: 0%
  pest or weed control at 62.5 g/ha: 2%
  pest or weed control at 250 g/ha: 50%
[6]
  pest or weed control at 15.625 g/ha: 0%
  pest or weed control at 62.5 g/ha: 0%
  pest or weed control at 250 g/ha: 10%

## O=c1c(-c2cc(C(F)(F)F)ccc2Cl)c(O)c2nccnc2n1CC(F)F [Compound 2.9]
[1]
  pest or weed control at 15.625 g/ha: 0%
  pest or weed control at 62.5 g/ha: 2%
  pest or weed control at 250 g/ha: 50%
[2]
  pest or weed control at 15.625 g/ha: 0%
  pest or weed control at 62.5 g/ha: 0%
  pest or weed control at 250 g/ha: 60%
[3]
  pest or weed control at 15.625 g/ha: 0%
  pest or weed control at 62.5 g/ha: 0%
  pest or weed control at 250 g/ha: 40%
[4]
  pest or weed control at 15.625 g/ha: 0%
  pest or weed control at 62.5 g/ha: 0%
  pest or weed control at 250 g/ha: 65%
[5]
  pest or weed control at 15.625 g/ha: 0%
  pest or weed control at 62.5 g/ha: 0%
  pest or weed control at 250 g/ha: 60%
[6]
  pest or weed control at 15.625 g/ha: 0%
  pest or weed control at 62.5 g/ha: 0%
  pest or weed control at 250 g/ha: 30%

## O=c1c(-c2c(F)ccc(Br)c2Cl)c(O)c2cccnc2n1CC(F)F [Compound 2.15]
[1]
  pest or weed control at 15.625 g/ha: 0%
  pest or weed control at 62.5 g/ha: 0%
  pest or weed control at 250 g/ha: 0%
[2]
  pest or weed control at 15.625 g/ha: 0%
  pest or weed control at 62.5 g/ha: 0%
  pest or weed control at 250 g/ha: 0%
[3]
  pest or weed control at 15.625 g/ha: 0%
  pest or weed control at 62.5 g/ha: 0%
  pest or weed control at 250 g/ha: 0%
[4]
  pest or weed control at 15.625 g/ha: 0%
  pest or weed control at 62.5 g/ha: 0%
  pest or weed control at 250 g/ha: 0%
[5]
  pest or weed control at 15.625 g/ha: 0%
  pest or weed control at 62.5 g/ha: 0%
  pest or weed control at 250 g/ha: 0%
[6]
  pest or weed control at 15.625 g/ha: 0%
  pest or weed control at 62.5 g/ha: 0%
  pest or weed control at 250 g/ha: 0%

## O=c1c(-c2c(Cl)ccc(Cl)c2Cl)c(O)c2nccnc2n1CC(F)F [Compound 2.14]
[1]
  pest or weed control at 15.625 g/ha: 0%
  pest or weed control at 62.5 g/ha: 2%
  pest or weed control at 250 g/ha: 20%
[2]
  pest or weed control at 15.625 g/ha: 0%
  pest or weed control at 62.5 g/ha: 0%
  pest or weed control at 250 g/ha: 2%
[3]
  pest or weed control at 15.625 g/ha: 0%
  pest or weed control at 62.5 g/ha: 0%
  pest or weed control at 250 g/ha: 5%
[4]
  pest or weed control at 15.625 g/ha: 0%
  pest or weed control at 62.5 g/ha: 0%
  pest or weed control at 250 g/ha: 5%
[5]
  pest or weed control at 15.625 g/ha: 0%
  pest or weed control at 62.5 g/ha: 5%
  pest or weed control at 250 g/ha: 50%
[6]
  pest or weed control at 15.625 g/ha: 0%
  pest or weed control at 62.5 g/ha: 2%
  pest or weed control at 250 g/ha: 20%
